The record followed here is patent US20230271965A1, “BICYCLIC HETEROARENES AND METHODS OF THEIR USE” (Kineta, Inc., priority 2020, published 2023).

Each structure is given as a SMILES string. pIC50: −log10 of the molar value. Where two headings read alike, the source gives them in different places.

The target in assay [1] is T1, full-length human PIKFYVE (GST-PIKFYVE) (Homo sapiens, UniProt Q9Y2I7, L932S/Q1183K/Q995L/S1033A/S696N/T998S).
T1 construct: A full-length human PIKFYVE [1-2098 (end) amino acids; purchased Carna Biosciences; host or cells: baculovirus expression system
T1 sequence (Q9Y2I7 whole entry S696N/L932S/Q995L/T998S/S1033A/Q1183K): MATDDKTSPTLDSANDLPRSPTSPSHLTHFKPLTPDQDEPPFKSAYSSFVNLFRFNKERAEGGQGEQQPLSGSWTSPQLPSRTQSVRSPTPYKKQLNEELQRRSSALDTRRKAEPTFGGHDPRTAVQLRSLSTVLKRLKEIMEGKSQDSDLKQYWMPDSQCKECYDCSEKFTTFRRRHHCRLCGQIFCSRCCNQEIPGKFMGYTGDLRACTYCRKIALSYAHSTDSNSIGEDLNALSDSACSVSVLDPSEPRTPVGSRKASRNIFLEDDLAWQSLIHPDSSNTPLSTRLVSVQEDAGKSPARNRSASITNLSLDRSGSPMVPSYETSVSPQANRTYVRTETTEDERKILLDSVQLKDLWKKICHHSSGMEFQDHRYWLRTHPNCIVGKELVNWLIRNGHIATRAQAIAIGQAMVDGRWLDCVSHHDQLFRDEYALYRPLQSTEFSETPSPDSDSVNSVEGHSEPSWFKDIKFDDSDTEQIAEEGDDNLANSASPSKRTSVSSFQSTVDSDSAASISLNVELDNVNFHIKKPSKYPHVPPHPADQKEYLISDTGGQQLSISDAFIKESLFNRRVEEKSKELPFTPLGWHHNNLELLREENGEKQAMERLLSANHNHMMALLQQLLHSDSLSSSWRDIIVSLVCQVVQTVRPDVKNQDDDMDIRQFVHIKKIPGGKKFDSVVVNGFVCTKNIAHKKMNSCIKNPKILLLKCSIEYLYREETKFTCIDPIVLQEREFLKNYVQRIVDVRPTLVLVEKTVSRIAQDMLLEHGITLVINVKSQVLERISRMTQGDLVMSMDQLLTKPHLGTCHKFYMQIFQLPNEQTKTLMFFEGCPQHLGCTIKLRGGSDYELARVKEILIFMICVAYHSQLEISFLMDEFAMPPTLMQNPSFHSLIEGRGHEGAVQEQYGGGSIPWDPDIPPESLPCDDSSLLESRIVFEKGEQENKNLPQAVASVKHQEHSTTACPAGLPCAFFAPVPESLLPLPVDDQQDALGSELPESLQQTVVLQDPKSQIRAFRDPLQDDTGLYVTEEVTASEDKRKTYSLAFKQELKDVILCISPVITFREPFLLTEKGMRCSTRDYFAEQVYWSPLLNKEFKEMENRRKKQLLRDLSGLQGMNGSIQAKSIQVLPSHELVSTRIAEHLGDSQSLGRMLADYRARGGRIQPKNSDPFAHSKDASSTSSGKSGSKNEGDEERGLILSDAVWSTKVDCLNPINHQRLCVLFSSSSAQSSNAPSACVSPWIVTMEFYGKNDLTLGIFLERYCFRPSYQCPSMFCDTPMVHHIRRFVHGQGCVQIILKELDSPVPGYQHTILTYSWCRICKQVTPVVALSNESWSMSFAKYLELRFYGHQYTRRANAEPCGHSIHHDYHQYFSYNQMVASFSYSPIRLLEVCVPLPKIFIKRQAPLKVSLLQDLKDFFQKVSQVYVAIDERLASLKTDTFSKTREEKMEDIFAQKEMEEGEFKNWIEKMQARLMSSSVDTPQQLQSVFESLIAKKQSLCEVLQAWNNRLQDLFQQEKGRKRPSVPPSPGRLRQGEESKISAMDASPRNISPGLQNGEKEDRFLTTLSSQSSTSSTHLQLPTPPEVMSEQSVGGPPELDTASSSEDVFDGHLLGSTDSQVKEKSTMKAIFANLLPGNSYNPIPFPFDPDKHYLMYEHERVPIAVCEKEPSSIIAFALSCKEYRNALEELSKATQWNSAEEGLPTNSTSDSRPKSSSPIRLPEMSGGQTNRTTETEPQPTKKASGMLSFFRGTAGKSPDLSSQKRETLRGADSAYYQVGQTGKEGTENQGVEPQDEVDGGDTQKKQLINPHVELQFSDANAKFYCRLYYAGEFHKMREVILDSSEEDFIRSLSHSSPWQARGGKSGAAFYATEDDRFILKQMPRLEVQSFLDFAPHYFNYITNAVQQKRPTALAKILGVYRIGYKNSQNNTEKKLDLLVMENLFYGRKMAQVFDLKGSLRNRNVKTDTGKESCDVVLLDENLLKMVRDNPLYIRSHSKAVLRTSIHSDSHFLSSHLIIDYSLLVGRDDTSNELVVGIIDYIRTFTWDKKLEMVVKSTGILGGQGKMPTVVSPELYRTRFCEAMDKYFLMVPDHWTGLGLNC
In words: PIKfyve biochemical assay (ADP-Glo Kinase assay, Carna Biosciences). As for the experimental part:
PIKfyve Biochemical Assay. The biochemical PIKFyve inhibition assays were run by Carna Biosciences according to proprietary methodology based on the Promega ADP-Glo™ Kinase assay. […] GST-PIKFYVE was purified by using glutathione sepharose chromatography and used in an ADP-Glo™ Kinase assay (Promega). Reactions were set up by adding the test compound solution, substrate solution, ATP solution and kinase solution, each at 4×final concentrations. Reactions were prepared with assay buffer (50 mM MOPS, 1 mM DTT, pH7.2), mixed, and incubated in black 384 well polystyrene plates for 1 hour at room temperature. ADP-Glo™ reagent was then added for 40 minutes, followed by kinase detection reagent for an additional 40 minutes. The kinase activity was evaluated by detecting relative light units on a luminescence plate reader. Samples were run in duplicate from 10 μM to 3 nM. […] IC50 values were calculated from concentration vs % inhibition curves by fitting to a four-parameter logistic curve.
The biochemical PIKFyve inhibition assays were run by Carna Biosciences according to proprietary methodology based on the Promega ADP-Glo™ Kinase assay. […] GST-PIKFYVE was purified by using glutathione sepharose chromatography and used in an ADP-Glo™ Kinase assay (Promega).
Reactions were set up by adding the test compound solution, substrate solution, ATP solution and kinase solution, each at 4×final concentrations. Reactions were prepared with assay buffer (50 mM MOPS, 1 mM DTT, pH7.2), mixed, and incubated in black 384 well polystyrene plates for 1 hour at room temperature. ADP-Glo™ reagent was then added for 40 minutes, followed by kinase detection reagent for an additional 40 minutes. The kinase activity was evaluated by detecting relative light units on a luminescence plate reader. Samples were run in duplicate from 10 uM to 3 nM. […] IC50 values were calculated from concentration vs % inhibition curves by fitting to a four-parameter logistic curve.

Assay [2] concerns PIKFYVE TDP-43 yeast strain. Nature of the assay: Propidium iodide viability assay, PIKFYVE TDP-43 yeast strain. The assay is classed as cell-based. The settings on record: Saccharomyces cerevisiae; reduction in PI-positive cells, 24 hours, values plotted in FIG. 7. From the text:
Generation of TDP-43 yeast model expressing human PIKfyve. Human PIKFYVE (“entry clone”) was cloned into pAG416GPDccdB (“destination vector”) according to standard Gateway cloning protocols (Invitrogen, Life Technologies). The resulting pAG416GPD-PIKFYVE plasmids were amplified in E. coli and plasmid identity confirmed by restriction digest and Sanger sequencing. Lithium acetate/polyethylene glycol-based transformation was used to introduce the above PIKFYVE plasmid into a BY4741 yeast strain auxotrophic for the ura3 gene and deleted for two transcription factors that regulate the xenobiotic efflux pumps, a major efflux pump, and FAB1, the yeast ortholog of PIKFYVE (MATa, snq2::KILeu2; pdr3::KIura3; pdr1::NATMX; fab1::G418^R, his3; leu2; ura3; met15; LYS2+) (FIG. 2).
Transformed yeast were plated on solid agar plates with complete synthetic media lacking uracil (CSM-ura) and containing 2% glucose. Individual colonies harboring the control or PIKFYVE TDP-43 plasmids were recovered. A plasmid containing wild-type TDP-43 under the transcriptional control of the GAL1 promoter and containing the hygromycin-resistance gene as a selectable marker was transformed into the fab1::G418^R pAG416GPD-PIKFYVE yeast strain (FIG. 1). Transformed yeast were plated on CSM-ura containing 2% glucose and […] after overnight recovery in media lacking antibiotic. Multiple independent isolates were further evaluated for cytotoxicity and TDP-43 expression levels.
Viability Assay. A control yeast strain with the wild-type yeast FAB1 gene and TDP-43 (“FAB1 TDP-43”, carries empty pAG416 plasmid), and the “PIKFYVE TDP-43” yeast strain, were assessed for toxicity using a propidium iodide viability assay. Both yeast strains were transferred from solid CSM-ura/2% glucose agar plates into 3 mL of liquid CSM-ura/2% glucose media for 6-8 hours at 30° C. with aeration. Yeast cultures were then diluted to an optical density at 600 nm wavelength (OD600) of 0.005 in 3 mL of CSM-ura/2% raffinose and grown overnight at 30° C. with aeration to an OD600 of 0.3-0.8. Log-phase overnight cultures were diluted to OD600 of 0.005 in CSM-ura containing either 2% raffinose or galactose and 150 μL dispensed into each well of a flat bottom 96-well plates. Compounds formulated in 100% dimethyl sulfoxide (DMSO) were serially diluted in DMSO and 1.5 μL diluted compound transferred to the 96-well plates using a multichannel pipet. Wells containing DMSO alone were also evaluated as controls for compound effects. Tested concentrations ranged from 15 μM to […]. Cultures were immediately mixed to ensure compound distribution and covered plates incubated at 30° C. for 24 hours in a stationary, humified incubator.
Upon the completion of incubation, cultures were assayed for viability using propidium iodide (PI) to stain for dead/dying cells. A working solution of PI was made where, for each plate, 1 μL of 10 mM PI was added to 10 mL of CSM-ura (raffinose or galactose). The final PI solution (50 μL/well) was dispensed into each well of a new round bottom 96-well plate. The overnight 96-well assay plate was then mixed with a multichannel pipet and 50 μL transferred to the PI-containing plate. This plate was then incubated for 30 minutes at 30° C. in the dark. A benchtop flow cytometer (Miltenyi MACSquant) was then used to assess red fluorescence ([…]), forward scatter, and side scatter (with following settings: gentle mix, high flow rate, fast measurement, 10,000 events). Intensity histograms were then gated for “PI-positive” or “PI-negative” using the raffinose and galactose cultures treated with DMSO as controls. The DMSO controls for raffinose or galactose-containing cultures were used to determine the window of increased cell death and this difference set to 100. All compounds were similarly gated and then compared to this maximal window to establish the percent reduction in PI-positive cells.

Setting [3] is: ADP-Glo with full-length PIKfyve, read-out: PIKfyve IC50.
Setting [4] is: values plotted in FIG. 7, read-out: PIKFYVE Biochemistry (IC50).
[5] abbreviates: ADP-Glo, full-length human PIKFYVE, read-out: hPIKfyve IC50.

On to `Cc1cccc(/C=N/Nc2cc(N3CC4CC3CO4)n3nc(-c4ccncc4)cc3n2)c1` (stereo not drawn), for which the pIC50 (in general, the negative decadic logarithm of the IC50, by convention in mol/L) in assay [1] (setting [3]) was 7.92.

Turning to `CN(C)c1cc(N2CCOCC2)n2nc(-c3ccncc3)cc2n1`, the pIC50 in assay [1] (setting [3]) was 5.70.

Regarding `Cc1cccc(/C=N/Nc2cc(N3CCOCC3)nc(OCCc3ccc(CN)cc3)n2)c1`, the pIC50 in assay [1] (setting [4]) was 8.15; in assay [2], 5.95.

For the compound `c1ccc(C2CN(c3cc(N4CCOCC4)n4nc(-c5ccncc5)cc4n3)CCN2)cc1` (stereo not drawn), the pIC50 is 5.58 in assay [1] (setting [4]) and less than 4.82 in assay [2].

With `c1ccc(-c2cccc(-c3cc(N4CCOCC4)n4nc(-c5ccncc5)cc4n3)n2)cc1`, the pIC50 in assay [1] (setting [4]) was 7.85; in assay [2], 6.64.

In the case of `c1cc(-c2cc3nc(C4CNC4)cc(N4CCOCC4)n3n2)ccn1`, the pIC50 is 5.10 in assay [1] (setting [4]) and less than 4.82 in assay [2].

Take `c1cc(-c2nc3nc(N4CCOCC4)cc(N4CCOCC4)n3n2)ccn1`: the pIC50 is 5.04 in assay [1] (setting [4]) and less than 4.82 in assay [2].

As to `O=c1ccc(-c2ccccc2)nn1-c1cc(N2CCOCC2)n2nc(-c3ccncc3)cc2n1`, the pIC50 in assay [1] (setting [4]) was 6.53; in assay [2], less than 4.82.

For the compound `c1ccc(Cc2ncccc2-c2cc(N3CCOCC3)n3nc(-c4ccncc4)cc3n2)cc1`, the pIC50 was 5.96 in assay [1] (setting [4]) and less than 4.82 in assay [2].

For the compound `Oc1cc(-c2ccccc2)nn1-c1cc(N2CCOCC2)n2nc(-c3ccncc3)nc2n1`, the pIC50 was 7.74 in assay [1] (setting [4]) and 6.16 in assay [2].

For the compound `Oc1cc(C2CCOCC2)nn1-c1cc(N2CCOCC2)n2nc(-c3ccncc3)cc2n1`, the values for the pIC50 in assay [1] (setting [4]) and in assay [2] were 6.60 and 5.04, respectively.

Consider `Cc1cccc(/C=N/Nc2nc(N3CCOCC3)c3ncccc3n2)c1`, for which the pIC50 in assay [1] (setting [4]) is 7.74; in assay [2] it was 5.09.

As for `c1ccc(-c2ccnc(-c3cc(N4CCOCC4)nc(OCc4ccncc4)n3)n2)cc1`, the results for the pIC50 in assay [1] (setting [4]) and in assay [2] were 7.49 and 5.84, respectively.

For `c1cc(COc2nc(N3CCOCC3)cc(-n3cc4c(n3)COCC4)n2)ccn1`, the pIC50 is 5.87 in assay [1] (setting [4]) and less than 4.82 in assay [2].

Take `c1ccc(-c2nc(-c3cc(N4CCOCC4)nc(OCc4ccncc4)n3)no2)cc1`: the pIC50 in assay [2] is less than 4.82.

Compound `O=c1c(CCOc2cccnc2)cc2ncncc2n1-c1ccccc1` showed a pIC50 in assay [2] of less than 4.82.

`O=c1ccn(Cc2nc(N3CCOCC3)cc(-n3nccc3-c3ccccc3)n2)cc1` had a pIC50 in assay [2] of less than 4.82.

Regarding `c1ccc(-c2ccnn2-c2cc(N3CCOCC3)n3nc(-c4ccncc4)nc3n2)cc1`, the values for the negative logarithm of the IC50 (pIC50) in assay [1] (setting [4]) and in assay [2] were 6.12 and less than 4.82, respectively.

As to `Fc1cccc(-c2ccnn2-c2nc(N3CCOCC3)c3ncccc3n2)c1`, in assay [2], the pIC50 was 5.24.

With `c1ccc(N2CCc3c(OCc4ccncc4)nc(N4CCOCC4)nc32)cc1` [Compound 4], in assay [1] (setting [5]), the pIC50 was 7.00 to 8.00.

Take `CN1CCCC(COc2nc(N3CCOCC3)nc3c2CCN3c2ccccc2)C1` (stereo not drawn) [Compound 7]: the pIC50 in assay [1] (setting [5]) was 5.00 to 6.00.

On to `c1ccc(N2CCc3c(OCC4CCCO4)nc(N4CCOCC4)nc32)cc1` (stereo not drawn) [Compound 8], for which the pIC50 in assay [1] (setting [5]) was 7.00 to 8.00.

For the compound `c1cncc(N2CCc3c(COC4CCNC4)nc(N4CCOCC4)nc32)c1` (stereo not drawn) [Compound 13, 4-(7-(pyridin-3-yl)-4-((pyrrolidin-3-yloxy)methyl)-5,6-dihydro-5H-pyrrolo[2,3-d]pyrimidin-2-yl)morpholine], in assay [1] (setting [5]), the pIC50 is 6.00 to 7.00.

On to `CC(C)(C)OC(=O)N1CCC(OCc2nc(N3CCOCC3)nc3c2CCN3c2cccnc2)C1` (stereo not drawn) [Compound 15, tert-butyl 3-((2-morpholino-7-(pyridin-3-yl)-6,7-dihydro-5H-pyrrolo[2,3-d]pyrimidin-4-yl)methoxy)pyrrolidine-1-carboxylate], for which, in assay [1] (setting [5]), the pIC50 is 5.00 to 6.00.

Turning to `c1ccc(N2CCc3c(Cc4ccccn4)nc(N4CCOCC4)nc32)cc1` [Compound 37, 4-(7-phenyl-4-(pyridin-2-ylmethyl)-6,7-dihydro-5H-pyrrolo[2,3-d]pyrimidin-2-yl)morpholine], the pIC50 in assay [1] (setting [5]) was 7.00 to 8.00.

As for `c1ccc(Cc2nc(N3CCOCC3)nc3c2CCN3c2cccnc2)nc1` [Compound 38], in assay [1] (setting [5]), the pIC50 is 6.00 to 7.00.

Regarding `c1ccc(N2CCc3c(NC4COC4)nc(N4CCOCC4)nc32)cc1` [Compound 48, 2-morpholino-N-(oxetan-3-yl)-7-phenyl-6,7-dihydro-5H-pyrrolo[2,3-d]pyrimidin-4-amine], the pIC50 in assay [1] (setting [5]) is 5.00 to 6.00.

As for `c1cncc(-c2nc(N3CCOCC3)nc3c2CCN3c2ccc3c(c2)OCCO3)c1` [Compound 64, 4-(7-(2,3-dihydrobenzo[b][1,4]dioxin-6-yl)-4-(pyridin-3-yl)-6,7-dihydro-5H-pyrrolo[2,3-d]pyrimidin-2-yl)morpholine], the pIC50 in assay [1] (setting [5]) was 7.00 to 8.00.

For the compound `Cc1cccc(/C=N/Nc2nc(N3CCOCC3)c3nc(-c4ccncc4)n(C)c3n2)c1` [drawing 252], the pIC50 in assay [1] (setting [3]) was 8.31.

For the compound `Cn1c(-c2ccncc2)nc2c(N3CCOCC3)ncnc21` [drawing 253], the pIC50 in assay [1] (setting [3]) is 6.19.

For the compound `Cn1c(-c2ccncc2)nc2c(N3CCOCC3)ncnc21` [drawing 265], the results for the pIC50 in assay [1] (setting [4]) and in assay [2] were 6.19 and less than 4.82, respectively.

Consider `Cc1cccc(/C=N/Nc2nc(N3CCOCC3)c3nc(-c4ccncc4)n(C)c3n2)c1` [drawing 266], for which the pIC50 in assay [1] (setting [4]) was 8.30; in assay [2] it was 5.33.

For the compound `COc1nc(N2CCOCC2)nc2c1CCN2c1ccccc1` [drawing 274], the pIC50 was 7.07 in assay [1] (setting [4]) and 5.37 in assay [2].

With `c1ccc(N2CCc3c(OCc4cccnc4)nc(N4CCOCC4)nc32)cc1` [drawing 275], the pIC50 in assay [1] (setting [4]) was 7.38; in assay [2], 5.57.
